Results taken from patent publication US20230233690A1, “ANDROGEN RECEPTOR PROTEIN DEGRADERS” (THE REGENTS OF THE UNIVERSITY OF MICHIGAN, priority 2020, published 2023).
Like-named read-outs stand apart in the source and are kept apart here.

Tests used:
[1] = biological target: T1, AR protein (Homo sapiens, UniProt P10275); assay: Western blotting of AR protein degradation in VCaP cells; assay type: cell-based
T1 construct: endogenous in cells; host or cells: VCaP
T1 sequence (P10275 1-920): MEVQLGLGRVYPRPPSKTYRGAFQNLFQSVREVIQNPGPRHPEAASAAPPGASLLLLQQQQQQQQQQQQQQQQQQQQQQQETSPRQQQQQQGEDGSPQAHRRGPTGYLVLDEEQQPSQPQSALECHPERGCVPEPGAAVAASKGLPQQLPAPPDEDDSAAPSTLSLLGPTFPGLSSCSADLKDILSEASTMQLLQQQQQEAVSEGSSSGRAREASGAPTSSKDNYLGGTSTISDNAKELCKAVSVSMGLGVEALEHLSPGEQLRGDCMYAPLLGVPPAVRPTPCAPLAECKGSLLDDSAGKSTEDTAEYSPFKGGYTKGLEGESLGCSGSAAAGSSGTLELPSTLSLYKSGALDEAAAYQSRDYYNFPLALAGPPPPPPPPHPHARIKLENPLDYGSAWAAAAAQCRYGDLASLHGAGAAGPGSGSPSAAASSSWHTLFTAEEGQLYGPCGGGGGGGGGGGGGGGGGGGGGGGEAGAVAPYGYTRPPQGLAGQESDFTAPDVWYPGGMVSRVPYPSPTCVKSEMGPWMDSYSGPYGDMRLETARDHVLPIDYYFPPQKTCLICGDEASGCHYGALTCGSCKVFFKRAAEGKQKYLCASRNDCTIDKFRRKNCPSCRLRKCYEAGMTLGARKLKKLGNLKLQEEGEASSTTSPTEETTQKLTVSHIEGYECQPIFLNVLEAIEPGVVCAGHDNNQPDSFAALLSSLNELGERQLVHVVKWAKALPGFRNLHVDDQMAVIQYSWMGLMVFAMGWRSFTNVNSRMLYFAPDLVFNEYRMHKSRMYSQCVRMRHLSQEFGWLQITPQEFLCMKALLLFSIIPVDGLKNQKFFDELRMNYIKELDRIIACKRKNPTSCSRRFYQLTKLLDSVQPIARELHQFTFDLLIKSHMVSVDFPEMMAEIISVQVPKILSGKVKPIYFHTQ
Procedure: The treated cells were lysed with RIPA buffer. […] GAPDH was used as a loading control.
Bands were quantified with ImageJ software. The relative numbers of each band obtained from normalization with its corresponding GAPDH level were compared with Prism 8 software. The DC50 values were produced from Prism 8, and the DC90 values were calculated with an equation=Bottom+(Top−Bottom)/(1+10^((Log EC50−X)*HillSlope) based on DC50 and Hillslope values.

[2] = PK parameters in male mice (Table 9); assay type: in vivo; conditions: for F: PO 3 mg/kg vs IV 1 mg/kg
Procedure: The pharmacokinetics (PK) of representative Compounds of the Disclosure were evaluated in mice or rats to provide an assessment of their oral bioavaibility. All animal experiments were performed under the guidelines of the University of Michigan Committee for Use and Care of Animals and using an approved animal protocol.

[3] = ICR, mouse, in vivo, IV 1 mg/kg

Compound	% AR protein degradation in VCaP Cells ([1]; 0.001 μM)	% AR protein degradation in VCaP Cells ([1]; 0.01 μM)	% AR protein degradation in VCaP Cells ([1]; 0.1 μM)	% AR protein degradation in VCaP Cells ([1]; 1 μM)	other results
N#Cc1ccc(O[C@H]2CC[C@H](NC(=O)c3ccc(N4CCN(CCCNc5ccc6c(c5)C(=O)N(C5CCC(=O)NC5=O)C6=O)CC4)cc3)CC2)cc1Cl (stereo partly shown) [compound 219, N-((1r,4r)-4-(3-chloro-4-cyanophenoxy)cyclohexyl)-4-(4-(3-((2-(2,6-dioxopiperidin-3-yl)-1,3-dioxoisoindolin-5-yl)amino)propyl)piperazin-1-yl)benzamide]	18%	69%	80%	59%	
N#Cc1ccc(O[C@H]2CC[C@H](NC(=O)c3ccc(N4CCN(CCCCNc5ccc6c(c5)C(=O)N(C5CCC(=O)NC5=O)C6=O)CC4)cc3)CC2)cc1Cl (stereo partly shown) [compound 220, N-((1r,4r)-4-(3-chloro-4-cyanophenoxy)cyclohexyl)-4-(4-(4-((2-(2,6-dioxopiperidin-3-yl)-1,3-dioxoisoindolin-5-yl)amino)butyl)piperazin-1-yl)benzamide]	18%	60%	80%	62%	
N#Cc1ccc(O[C@H]2CC[C@H](NC(=O)c3ccc(N4CCN(CCCCCNc5ccc6c(c5)C(=O)N(C5CCC(=O)NC5=O)C6=O)CC4)cc3)CC2)cc1Cl (stereo partly shown) [compound 221, N-((1r,4r)-4-(3-chloro-4-cyanophenoxy)cyclohexyl)-4-(4-(5-((2-(2,6-dioxopiperidin-3-yl)-1,3-dioxoisoindolin-5-yl)amino)pentyl)piperazin-1-yl)benzamide]	17%	22%	51%	34%	
N#Cc1ccc(N[C@H]2CC[C@H](NC(=O)c3ccc(N4CCC(N5CCN(c6ccc7c(c6)C(=O)N(C6CCC(=O)NC6=O)C7=O)CC5)CC4)cc3)CC2)cc1Cl (stereo partly shown) [compound 229, N-((1r,4r)-4-((3-chloro-4-cyanophenyl)amino)cyclohexyl)-4-(4-(4-(2-(2,6-dioxopiperidin-3-yl)-1,3-dioxoisoindolin-5-yl)piperazin-1-yl)piperidin-1-yl)benzamide]	51%	62%	52%	43%	
CN(c1ccc(C#N)c(Cl)c1)[C@H]1CC[C@H](NC(=O)c2ccc(N3CCC(N4CCN(c5ccc6c(c5)C(=O)N(C5CCC(=O)NC5=O)C6=O)CC4)CC3)cc2)CC1 (stereo partly shown) [compound 230, N-((1r,4r)-4-((3-chloro-4-cyanophenyl)(methyl)amino)cyclohexyl)-4-(4-(4-(2-(2,6-dioxopiperidin-3-yl)-1,3-dioxoisoindolin-5-yl)piperazin-1-yl)piperidin-1-yl)benzamide]					clearance [2, 3]: 5.5 mL/min/kg; AUC(0-t) ([2]; IV 1 mg/kg): 2857 ng·h/mL; T1/2 ([2]; IV 1 mg/kg): 6.6 h; Vss ([2]; IV 1 mg/kg): 2.73 L/kg; AUC(0-t) ([2]; PO 3 mg/kg): 3811 ng·h/mL; Cmax ([2]; PO 3 mg/kg): 251 ng/mL; T1/2 ([2]; PO 3 mg/kg): 10.6 h; Tmax ([2]; PO 3 mg/kg): 5.3 h; F [2]: 44%
CCN(c1ccc(C#N)c(Cl)c1)[C@H]1CC[C@H](NC(=O)c2ccc(N3CCC(N4CCN(c5ccc6c(c5)C(=O)N(C5CCC(=O)NC5=O)C6=O)CC4)CC3)cc2)CC1 (stereo partly shown) [compound 231, N-((1r,4r)-4-((3-chloro-4-cyanophenyl)(ethyl)amino)cyclohexyl)-4-(4-(4-(2-(2,6-dioxopiperidin-3-yl)-1,3-dioxoisoindolin-5-yl)piperazin-1-yl)piperidin-1-yl)benzamide]					clearance [2, 3]: 31.2 mL/min/kg; half-life [2, 3]: 4.1 h; AUC(0-t) ([2]; ICR, mouse, in vivo, IV 1 mg/kg, read-out: AUC(0-t)): 539 ng·h/mL; Vd ([2]; ICR, mouse, in vivo, IV 1 mg/kg, read-out: Vss): 4.34 L/kg; half-life ([2]; ICR, mouse, in vivo, PO 3 mg/kg): 2.4 h; AUC(0-t) ([2]; ICR, mouse, in vivo, PO 3 mg/kg, read-out: AUC(0-t)): 492 ng·h/mL; Cmax ([2]; ICR, mouse, in vivo, PO 3 mg/kg, read-out: Cmax): 102 ng/mL; Tmax ([2]; ICR, mouse, in vivo, PO 3 mg/kg, read-out: Tmax): 1.7 h; F [2]: 30%
CC(O)(CS(=O)(=O)c1ccc(N2CCN(C3CCN(c4ccc5c(c4)C(=O)N(C4CCC(=O)NC4=O)C5=O)CC3)CC2)cc1)C(=O)Nc1ccc(C#N)c(C(F)(F)F)c1 (stereo not shown) [compound 241, N-(4-cyano-3-(trifluoromethyl)phenyl)-3-((4-(4-(1-(2-(2,6-dioxopiperidin-3-yl)-1,3-dioxoisoindolin-5-yl)piperidin-4-yl)piperazin-1-yl)phenyl)sulfonyl)-2-hydroxy-2-methylpropanamide]	7%	13%	−2%	27%	
CC1(C)C(=O)N(c2ccc(C#N)c(C(F)(F)F)c2)C(=S)N1c1ccc(C(=O)N2CCN(C3CCN(c4ccc5c(c4)C(=O)N(C4CCC(=O)NC4=O)C5=O)CC3)CC2)c(F)c1 (stereo not shown) [compound 242, 4-(3-(4-(4-(1-(2-(2,6-dioxopiperidin-3-yl)-1,3-dioxoisoindolin-5-yl)piperidin-4-yl)piperazine-1-carbonyl)-3-fluorophenyl)-4,4-dimethyl-5-oxo-2-thioxoimidazolidin-1-yl)-2-(trifluoromethyl)benzonitrile]	14%	6%	18%	31%	

Further lines, with some results ahead:

% AR protein degradation in VCaP Cells ([1]; 0.001 μM)	% AR protein degradation in VCaP Cells ([1]; 0.01 μM)	% AR protein degradation in VCaP Cells ([1]; 0.1 μM)	% AR protein degradation in VCaP Cells ([1]; 1 μM)	Compound	other results
38%	79%	85%	86%	N#Cc1ccc(O[C@H]2CC[C@H](NC(=O)c3ccc(N4CCN(CC5CN(c6ccc7c(c6)C(=O)N(C6CCC(=O)NC6=O)C7=O)C5)CC4)cc3)CC2)cc1Cl (stereo partly shown) [compound 224, N-((1r,4r)-4-(3-chloro-4-cyanophenoxy)cyclohexyl)-4-(4-((1-(2-(2,6-dioxopiperidin-3-yl)-1,3-dioxoisoindolin-5-yl)azetidin-3-yl)methyl)piperazin-1-yl)benzamide]	
2%	3%	23%	18%	N#Cc1ccc(O[C@H]2CC[C@H](NC(=O)c3ccc(N4CCC(N5CCN(c6ccc7c(c6)C(=O)N(C6CCC(=O)NC6=O)C7=O)CC5)CC4)cc3)C2)cc1Cl (stereo partly drawn) [compound 226, N-((1S,3S)-3-(3-chloro-4-cyanophenoxy)cyclopentyl)-4-(4-(4-(2-(2,6-dioxopiperidin-3-yl)-1,3-dioxoisoindolin-5-yl)piperazin-1-yl)piperidin-1-yl)benzamide]	
22%	36%	34%	43%	N#Cc1ccc(O[C@@H]2CCC[C@@H](NC(=O)c3ccc(N4CCC(N5CCN(c6ccc7c(c6)C(=O)N(C6CCC(=O)NC6=O)C7=O)CC5)CC4)cc3)CC2)cc1Cl (stereo partly drawn) [compound 227, N-((1R,4R)-4-(3-chloro-4-cyanophenoxy)cycloheptyl)-4-(4-(4-(2-(2,6-dioxopiperidin-3-yl)-1,3-dioxoisoindolin-5-yl)piperazin-1-yl)piperidin-1-yl)benzamide]	
12%	21%	51%	47%	N#Cc1ccc(O[C@H]2CCC[C@H](NC(=O)c3ccc(N4CCC(N5CCN(c6ccc7c(c6)C(=O)N(C6CCC(=O)NC6=O)C7=O)CC5)CC4)cc3)CCC2)cc1Cl (stereo partly shown) [compound 228, N-((1r,5r)-5-(3-chloro-4-cyanophenoxy)cyclooctyl)-4-(4-(4-(2-(2,6-dioxopiperidin-3-yl)-1,3-dioxoisoindolin-5-yl)piperazin-1-yl)piperidin-1-yl)benzamide]	
